This note sets out measurements from US8575197B2, “Pyrolinone derivative and pharmaceutical composition comprising the same” (Shionogi & Co., Ltd., priority 2008, dated 2013).

The target in the assay is human P2X3 receptor (Homo sapiens (Human), UniProt P56373). As to the kind of experiment: P2X3 receptor inhibition, ATP-evoked Fluo-3 calcium fluorescence (FDSS 3000). To be noted: C6BU-1 cell transfected with human P2X3 receptor gene; ATP-evoked Fluo-3 fluorescence. Type of assay: cell-based. The essentials: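 C6BU-1 cells stably transfected with human P2X3, loaded with 4 μM Fluo-3-AM for 1 h at 37 °C in HEPES buffer pH 7.5 with probenecid. Compound added 5 min before 40 nM ATP solution; fluorescence followed 3 min. IC50 from ratio of peak post-ATP to baseline fluorescence.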
Chain of human P2X3 receptor (P56373 whole entry): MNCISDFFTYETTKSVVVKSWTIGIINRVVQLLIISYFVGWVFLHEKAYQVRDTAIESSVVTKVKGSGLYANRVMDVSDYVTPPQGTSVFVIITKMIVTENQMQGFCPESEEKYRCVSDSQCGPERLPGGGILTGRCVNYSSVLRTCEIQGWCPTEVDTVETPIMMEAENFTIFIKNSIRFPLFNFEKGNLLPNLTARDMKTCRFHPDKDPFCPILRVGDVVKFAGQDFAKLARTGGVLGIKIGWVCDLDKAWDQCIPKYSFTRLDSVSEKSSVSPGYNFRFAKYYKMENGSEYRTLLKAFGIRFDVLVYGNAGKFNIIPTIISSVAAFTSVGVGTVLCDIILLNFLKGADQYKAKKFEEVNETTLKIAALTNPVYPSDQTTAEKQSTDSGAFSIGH
`C=C(C)c1n[nH]c2c1C(c1ccccc1OC)N(c1ccc(-c3ccon3)cc1)C2=O` (centres unmarked) [II-149]: the half-inhibitory concentration (IC50) was 0.377 µM.
For `COc1ccccc1C1c2c(C(C)(C)C)n[nH]c2C(=O)N1c1ccc(C(C)(C)O)cc1` (centres unmarked) [II-151] the value was 0.65 µM; for `COc1ccccc1C1c2c(C(C)(C)C)n[nH]c2C(=O)N1c1ccc(C(C)=O)cc1` (centres unmarked) [II-155], 0.322 µM.
For `CO/N=C(/C)c1ccc(N2C(=O)c3[nH]nc(C(C)(C)C)c3C2c2ccccc2OC)cc1` (centres unmarked) [II-156] the value was 0.412 µM; for `COc1ccccc1C1c2c(C(C)(C)C(=O)O)n[nH]c2C(=O)N1c1ccc(-c2cccs2)cc1` (centres unmarked) [II-163], 0.034 µM; for `CC(C)(C)c1n[nH]c2c1C(c1cccc[n+]1[O-])N(c1ccc(-c3cccs3)cc1)C2=O` (centres unmarked) [II-164], 0.036 µM.
For `COc1ccccc1C1c2c(C(C)(C)C(=O)O)n[nH]c2C(=O)N1c1ccc(-c2ccsc2)cc1` (centres unmarked) [II-165] the value was 0.041 µM.
Consider `CN(C)C(=O)COc1ccccc1C1c2c(C(C)(C)C)n[nH]c2C(=O)N1c1ccc(-c2ccsc2)cc1` (centres unmarked) [II-166], for which the IC50 amounted to 0.007 µM.
As for `CNC(=O)COc1ccccc1C1c2c(C(C)(C)C)n[nH]c2C(=O)N1c1ccc(-c2ccsc2)cc1` (centres unmarked) [II-167], the IC50 was 0.005 µM.
Regarding `C[S+]([O-])CCOc1ccccc1C1c2c(C(C)(C)C)n[nH]c2C(=O)N1c1ccc(-c2ccon2)cc1` (centres unmarked) [II-168], the IC50 worked out at 0.101 µM.
As for `CC(C)(C)c1n[nH]c2c1C(c1ccccc1OCC(N)=O)N(c1ccc(-c3ccsc3)cc1)C2=O` (centres unmarked) [II-169], the IC50 is 0.004 µM.
As to `CNC(=O)C(C)(C)c1n[nH]c2c1C(c1ccccc1OC)N(c1ccc(-c3ccsc3)cc1)C2=O` (centres unmarked) [II-170], the IC50 came to 0.034 µM.
As for `CC(C)(C)c1n[nH]c2c1C(c1ccccc1OCCNS(C)(=O)=O)N(c1ccc(-c3ccsc3)cc1)C2=O` (centres unmarked) [II-171], the IC50 came out at 0.007 µM.
For `COc1ccccc1C1c2c(C(C)(C)C(=O)N(C)C)n[nH]c2C(=O)N1c1ccc(-c2ccsc2)cc1` (centres unmarked) [II-172] the value was 0.011 µM.
With `CC(C)(C)c1n[nH]c2c1C(c1ccccc1OCC#N)N(c1ccc(-c3ccsc3)cc1)C2=O` (centres unmarked) [II-173], the IC50 amounted to 0.004 µM.
For `CC(C)(C)c1n[nH]c2c1C(c1ccccc1OCc1nnn[nH]1)N(c1ccc(-c3ccsc3)cc1)C2=O` (centres unmarked) [II-174] the value was 0.003 µM; for `CC(C)c1n[nH]c2c1C(c1ccccc1OCc1nnn[nH]1)N(c1ccc(-c3ccsc3)cc1)C2=O` (centres unmarked) [II-175], 0.003 µM.
Regarding `CC(=O)NCCOc1ccccc1C1c2c(C(C)C)n[nH]c2C(=O)N1c1ccc(-c2ccsc2)cc1` (centres unmarked) [II-176], the IC50 turned out to be 0.01 µM.
For `COc1ccccc1C1c2c(-c3ccco3)n[nH]c2C(=O)N1c1ccc(-c2ccsc2)cc1` (centres unmarked) [II-178] the value was 0.149 µM; for `COc1ccccc1C1c2c(C(=O)N(C)C)n[nH]c2C(=O)N1c1ccc(-c2ccsc2)cc1` (centres unmarked) [II-180], 0.262 µM; for `CNC(=O)c1n[nH]c2c1C(c1ccccc1OC)N(c1ccc(-c3ccsc3)cc1)C2=O` (centres unmarked) [II-181], 0.301 µM.
Consider `COc1ccccc1C1c2c(CO)n[nH]c2C(=O)N1c1ccc(-c2ccsc2)cc1` (centres unmarked) [II-182], for which the IC50 stood at 0.06 µM.
As to `CCOC(=O)C1c2c(C(C)C)n[nH]c2C(=O)N1c1ccc(-c2ccsc2)cc1` (centres unmarked) [II-183], the IC50 turned out to be 0.46 µM.
As for `CC(C)c1n[nH]c2c1C(c1ccccc1OCC(C)(C)O)N(c1ccc(-c3ccsc3)cc1)C2=O` (centres unmarked) [II-184], the IC50 is 0.012 µM.
For `CC(C)c1n[nH]c2c1C(c1ccccc1OCC(=N)NO)N(c1ccc(-c3ccsc3)cc1)C2=O` (centres unmarked) [II-185] the value was 0.011 µM.
As for `COc1ccccc1C1c2c(C(C)=O)n[nH]c2C(=O)N1c1ccc(-c2ccsc2)cc1` (centres unmarked) [II-188], the IC50 stood at 0.156 µM.
For `COc1ccccc1C1c2c(C(C)C)n[nH]c2CN1C(=O)Nc1ccc(-c2ccsc2)cc1` (centres unmarked) [II-189] the value was 0.897 µM; for `COc1ncccc1C1c2c(C(C)(C)C)n[nH]c2C(=O)N1c1ccc(-c2cc(C)no2)cc1` (centres unmarked) [II-191], 0.322 µM; for `COc1ncccc1C1c2c(C(C)(C)C)n[nH]c2C(=O)N1c1ccc(C2=NCCS2)cc1` (centres unmarked) [II-192], 0.222 µM.
Take `COc1ncccc1C1c2c(C(C)(C)C)n[nH]c2C(=O)N1c1ccc(-c2nccs2)cc1` (centres unmarked) [II-193]: the IC50 amounted to 0.195 µM.
In the case of `COc1ncccc1C1c2c(C(C)(C)C)n[nH]c2C(=O)N1c1ccc(-c2noc(C)n2)cc1` (centres unmarked) [II-194], the IC50 is 0.392 µM.
For `COc1ncccc1C1c2c(C(C)(C)C)n[nH]c2C(=O)N1c1ccc(-c2nc(C)no2)cc1` (centres unmarked) [II-195] the value was 0.944 µM; for `COc1ccccc1C1c2c(C(C)(C)C)n[nH]c2C(=O)N1c1ccc(C)cc1` (centres unmarked) [II-196], 0.783 µM.
Regarding `COc1ccccc1C1c2c(C(C)(C)C)n[nH]c2C(=O)N1c1ccc(C(C)C)cc1` (centres unmarked) [II-197], the IC50 came out at 0.106 µM.
On to `COc1ccc(C2(c3n[nH]c4c3C(c3ccccc3OC)N(c3ccc(-c5ccon5)cc3)C4=O)CC2)cc1` (centres unmarked) [II-198], for which the IC50 is 0.123 µM.
For `COc1ccccc1C1c2c(C(C)(C)c3ccccc3)n[nH]c2C(=O)N1c1ccc(-c2ccon2)cc1` (centres unmarked) [II-199], the IC50 worked out at 0.113 µM.
For `COc1ccc(-c2n[nH]c3c2C(C2CCCCC2)N(Cc2cc(C)on2)C3=O)cc1` (centres unmarked) [II-200] the value was 0.448 µM; for `COc1ccccc1C1c2c(C(C)(C)C)n[nH]c2C(=O)N1c1ccc(SC)cc1` (centres unmarked) [II-201], 0.033 µM; for `COc1ccccc1C1c2c(C(C)(C)C)n[nH]c2C(=O)N1c1ccc(N(C)C)cc1` (centres unmarked) [II-202], 0.076 µM.
For `COc1ccccc1C1c2c(C(C)(C)C)n[nH]c2C(=O)N1c1ccc(-c2ccco2)cc1` (centres unmarked) [II-203] the value was 0.028 µM; for `COc1ccccc1C1c2c(C(C)(C)C)n[nH]c2C(=O)N1c1ccc(-c2ccsc2)cc1` (centres unmarked) [II-204], 0.017 µM.
For `COc1ccccc1C1c2c(C(C)(C)C)n[nH]c2C(=O)N1c1ccc(-c2cccn2C)cc1` (centres unmarked) [II-205] the value was 0.811 µM; for `COc1ccccc1C1c2c(C(C)(C)C)n[nH]c2C(=O)N1c1ccc(-c2ccccc2)cc1` (centres unmarked) [II-208], 0.112 µM.
Regarding `COc1ccccc1C1c2c(C(C)(C)C)n[nH]c2C(=O)N1c1ccc(-c2ncco2)cc1` (centres unmarked) [II-209], the IC50 is 0.087 µM.
For `COc1ccccc1C1c2c(C(C)(C)C)nn(C(=O)OC(C)(C)C)c2C(=O)N1c1ccc(Br)cc1` (centres unmarked) [II-211] the value was 0.135 µM.
Take `COc1ccccc1C1c2c(C(C)(C)C)n[nH]c2C(=O)N1c1ccc(-c2cccs2)cc1` (centres unmarked) [II-213]: the IC50 is 0.011 µM.
For `COc1ccccc1C1c2c(C(C)(C)CO)n[nH]c2C(=O)N1c1ccc(-c2ccco2)cc1` (centres unmarked) [II-215] the value was 0.015 µM.
As for `COc1ccccc1C1c2c(C(C)(C)CO)n[nH]c2C(=O)N1c1ccc(-c2ccsc2)cc1` (centres unmarked) [II-217], the IC50 was 0.003 µM.
For `COc1ccccc1C1c2c(C(C)(C)CO)n[nH]c2C(=O)N1c1ccc(-c2cccs2)cc1` (centres unmarked) [II-218] the value was 0.005 µM; for `COc1ccccc1C1c2c(C(C)(C)CO)n[nH]c2C(=O)N1c1ccc(-c2ccoc2)cc1` (centres unmarked) [II-219], 0.014 µM.
Take `COc1ncccc1C1c2c(C(C)(C)C)n[nH]c2C(=O)N1c1ccc(-c2ccoc2)cc1` (centres unmarked) [II-220]: the IC50 amounted to 0.069 µM.
Turning to `COc1ncccc1C1c2c(C(C)(C)C)n[nH]c2C(=O)N1c1ccc(-c2ccsc2)cc1` (centres unmarked) [II-223], the IC50 was determined as 0.023 µM.
As to `COc1ncccc1C1c2c(C(C)(C)C)n[nH]c2C(=O)N1c1ccc(-c2cccs2)cc1` (centres unmarked) [II-224], the IC50 came out at 0.031 µM.
For `COc1ccc(-c2n[nH]c3c2C(c2ccccc2OC)N(CCc2ccco2)C3=O)cc1` (centres unmarked) [II-225] the value was 0.979 µM; for `COC(=O)n1nc(C(C)(C)C)c2c1C(=O)N(c1ccc(Br)cc1)C2c1ccccc1OC` (centres unmarked) [II-229], 0.082 µM.
`COc1ccc(-c2n[nH]c3c2C(c2ccccc2OC)N(CCCc2ccco2)C3=O)cc1` (centres unmarked) [II-231]: the IC50 turned out to be 0.344 µM.
For `COc1ccccc1C1c2c(C(C)(C)CO)n[nH]c2C(=O)N1c1ccc(-c2cc[nH]c2)cc1` (centres unmarked) [II-232] the value was 0.016 µM.
For `CC(C)c1n[nH]c2c1C(c1ccccn1)N(c1ccc(-c3ccsc3)cc1)C2=O` (centres unmarked) [II-233] the value was 0.092 µM.
For the compound `CC(C)(CO)c1n[nH]c2c1C(c1ccccn1)N(c1ccc(-c3ccsc3)cc1)C2=O` (centres unmarked) [II-234], the IC50 came to 0.13 µM.
Regarding `COc1cc(N2C(=O)c3[nH]nc(C(C)C)c3C2c2ccccc2OC)ccc1-c1ccsc1` (centres unmarked) [II-235], the IC50 came to 0.017 µM.
With `CC(C)c1n[nH]c2c1C(c1ccccc1OC(CO)CO)N(c1ccc(-c3ccsc3)cc1)C2=O` (centres unmarked) [II-236], the IC50 is 0.005 µM.
For the compound `COc1ccccc1C1c2c(C(C)C)n[nH]c2C(=O)N1c1ccc(-c2ccsc2)c(NC(C)=O)c1` (centres unmarked) [II-237], the IC50 is 0.853 µM.
With `COc1ccccc1C1c2c(C(C)C)n[nH]c2C(=O)N1c1ccc(-c2ccsc2)c(F)c1` (centres unmarked) [II-238], the IC50 was 0.019 µM.
Turning to `COc1ccccc1C1c2c(C(C)C)n[nH]c2C(=O)N1c1ccc(-c2ccsc2)c(C)c1` (centres unmarked) [II-239], the IC50 is 0.205 µM.
Regarding `COc1ccccc1C1c2c(C(C)C)n[nH]c2C(=O)N1c1ccc(-c2ccsc2)c(N)c1` (centres unmarked) [II-240], the IC50 turned out to be 0.116 µM.
Turning to `COC(=O)c1cc(N2C(=O)c3[nH]nc(C(C)C)c3C2c2ccccc2OC)ccc1-c1ccsc1` (centres unmarked) [II-241], the IC50 amounted to 0.213 µM.
Turning to `COc1ccccc1C1c2c(C(C)C)n[nH]c2C(=O)N1c1ccc(-c2ccsc2)c(C(N)=O)c1` (centres unmarked) [II-242], the IC50 was 0.152 µM.
For `COc1ccccc1C1c2c(C(C)C)n[nH]c2C(=O)N1c1ccc(-c2ccsc2)c(CO)c1` (centres unmarked) [II-243] the value was 0.138 µM; for `COc1ccccc1C1c2c(C(C)C)n[nH]c2C(=O)N1c1ccc(-c2ccsc2)c(N(C)C)c1` (centres unmarked) [II-244], 0.144 µM.
For `CC(C)c1n[nH]c2c1C(c1ccccc1OCCS(C)(=O)=O)N(c1ccc(-c3ccsc3)cc1)C2=O` (centres unmarked) [II-245] the value was 0.006 µM; for `COc1ccccc1C1c2c(C(C)(C)C)n[nH]c2C(=O)N1c1ccc(Br)cn1` (centres unmarked) [II-246], 0.871 µM.

As usually defined, the IC50 is the concentration that inhibits the measured activity by half.
